Reference: patent US4866038A, “Method of stimulating integumental melanocytes by topical application of analogs of alpha-msh” (University Patents, Inc., priority 1988, dated 1989)
Where two headings read alike, the source gives them in different places. Non-standard residues stand in square brackets, D forms with d. Residues, ends and D or L forms follow the SMILES beside them. *: point of attachment. Phe(4-NO2) = N[C@@H](Cc1ccc([N+](=O)[O-])cc1)C(=O)O; dPhe(4-NO2) = N[C@H](Cc1ccc([N+](=O)[O-])cc1)C(=O)O; Phg = N[C@H](C(=O)O)c1ccccc1; Nle = CCCC[C@H](N)C(=O)O; For = O=C*

Assays:
[1] = test system: lizard (Anolis caroliniensis); type: cell-based
Protocol: (§1) Biological effect on in vivo and in vitro melanosome dispersion was examined using the frog (Rana pipiens) and the lizard (Anolis caroliniensis). [See Hadley et al., Science 213:1025-1027(1981)]; similar examinations were conducted with respect to the duration of its ability to stimulate melanosome dispersion in vitro using the skin bioassay as described in Shimume, Endrochrinology, 54:553-560(1954). The in vitro results are depicted in Table I.

frog (Rana pipiens) = type: cell-based
Protocol: as §1

CCCC[C@H](NC(C)=O)C(=O)N[C@@H](CCC(=O)O)C(=O)N[C@@H](Cc1c[nH]cn1)C(=O)N[C@H](Cc1ccc(O)cc1)C(=O)N[C@@H](CCCNC(=N)N)C(=O)N[C@@H](Cc1c[nH]c2ccccc12)C(=O)NCC(=O)N[C@@H](CCCCN)C(N)=O [Ac--[Nle^4 --D-Tyr^7]--alpha-MSH4-11 --NH2] (Ac-[Nle]EH[dY]RWGK-NH2)
Relative Potency Lizard [1]: 1.0

CCCC[C@H](NC(C)=O)C(=O)N[C@@H](CCC(=O)O)C(=O)N[C@@H](Cc1c[nH]cn1)C(=O)N[C@H](Cc1ccccc1)C(=O)N[C@@H](CCCNC(=N)N)C(=O)N[C@@H](Cc1c[nH]c2ccccc12)C(N)=O [Ac--[Nle^4 --D-Phe^7 --alpha-MSH4-9 --NH2] (Ac-[Nle]EH[dF]RW-NH2)
Relative Potency Lizard [1]: 7.14

CC(=O)N[C@@H](Cc1ccc(O)cc1)C(=O)N[C@@H](CCC(=O)O)C(=O)N[C@@H](Cc1c[nH]cn1)C(=O)N[C@H](Cc1ccccc1)C(=O)N[C@@H](CCCNC(=N)N)C(=O)N[C@@H](Cc1c[nH]c2ccccc12)C(=O)NCC(N)=O [Ac--[Tyr^4 --D-Phe^7 --alpha-MSH4-10 --NH2] (Ac-YEH[dF]RWG-NH2)
Relative Potency Frog (frog (Rana pipiens)): 0.005

CCCC[C@H](NC(C)=O)C(=O)N[C@@H](CCC(=O)O)C(=O)N[C@H](Cc1c[nH]cn1)C(=O)N[C@@H](Cc1ccccc1)C(=O)N[C@@H](CCCNC(=N)N)C(=O)N[C@@H](Cc1c[nH]c2ccccc12)C(=O)NCC(=O)N[C@@H](CCCCN)C(N)=O [Ac--[Nle^4 --D-His^6]--alpha-MSH4-11 --NH2] (Ac-[Nle]E[dH]FRWGK-NH2)
Relative Potency Frog (frog (Rana pipiens)): 0.0014
Relative Potency Lizard [1]: 0.002

CCCC[C@H](NC(C)=O)C(=O)N[C@@H](CCC(=O)O)C(=O)N[C@@H](Cc1c[nH]cn1)C(=O)N[C@H](Cc1ccc([N+](=O)[O-])cc1)C(=O)N[C@@H](CCCNC(=N)N)C(=O)N[C@@H](Cc1c[nH]c2ccccc12)C(=O)NCC(=O)N[C@@H](CCCCN)C(N)=O [Ac--[Nle^4 --D-pNO2 Phe^7]-- alpha-MSH4-11 --NH2] (Ac-[Nle]EH[dPhe(4-NO2)]RWGK-NH2)
Relative Potency Frog (frog (Rana pipiens)): 0.10
Relative Potency Lizard [1]: 4.0

CCCC[C@H](NC(C)=O)C(=O)N[C@@H](CCC(=O)O)C(=O)N[C@@H](Cc1c[nH]cn1)C(=O)N[C@H](Cc1ccccc1)C(=O)N[C@H](CCCNC(=N)N)C(=O)N[C@@H](Cc1c[nH]c2ccccc12)C(=O)NCC(=O)N[C@@H](CCCCN)C(N)=O [Ac--[Nle^4 --D-Phe^7 --D-Arg^8]--alpha-MSH4-11 --NH2] (Ac-[Nle]EH[dF][dR]WGK-NH2)
Relative Potency Frog (frog (Rana pipiens)): 0.00010
Relative Potency Lizard [1]: 0.0022

CCCC[C@H](NC(C)=O)C(=O)N[C@@H](CCC(=O)O)C(=O)N[C@@H](Cc1c[nH]cn1)C(=O)N[C@H](C(=O)N[C@@H](CCCNC(=N)N)C(=O)N[C@@H](Cc1c[nH]c2ccccc12)C(=O)NCC(=O)N[C@@H](CCCCN)C(N)=O)c1ccccc1 [Ac--[Nle^4 --Plg^7]--alpha-MSH4-11 --NH2] (Ac-[Nle]EH[Phg]RWGK-NH2)
Relative Potency Frog (frog (Rana pipiens)): 0.14
Relative Potency Lizard [1]: 0.14

CCCC[C@H](NC(C)=O)C(=O)N[C@@H](CCC(=O)O)C(=O)N[C@@H](Cc1c[nH]cn1)C(=O)N[C@@H](Cc1ccc([N+](=O)[O-])cc1)C(=O)N[C@@H](CCCNC(=N)N)C(=O)N[C@@H](Cc1c[nH]c2ccccc12)C(=O)NCC(=O)N[C@@H](CCCCN)C(N)=O [Ac--[Nle^ 4 --pNO2 Phe^7]--alpha-MSH4-11 --NH2] (Ac-[Nle]EH[Phe(4-NO2)]RWGK-NH2)
Relative Potency Frog (frog (Rana pipiens)): 0.0009
Relative Potency Lizard [1]: 0.20

CCCC[C@H](NC(C)=O)C(=O)N[C@@H](CCC(=O)O)C(=O)N[C@@H](Cc1c[nH]cn1)C(=O)N[C@H](Cc1ccccc1)C(=O)N[C@@H](CCCNC(=N)N)C(=O)N[C@H](Cc1c[nH]c2ccccc12)C(=O)NCC(=O)N[C@@H](CCCCN)C(N)=O [Ac--[Nle^4 --D-Phe^7 --D-Trp^9]--alpha-MSH4-11 --NH2] (Ac-[Nle]EH[dF]R[dW]GK-NH2)
Relative Potency Frog (frog (Rana pipiens)): 3.17
Relative Potency Lizard [1]: 10.5

CC(=O)N[C@@H](Cc1ccc(O)cc1)C(=O)N[C@@H](CCC(=O)O)C(=O)N[C@@H](Cc1c[nH]cn1)C(=O)N[C@H](Cc1ccccc1)C(=O)N[C@@H](CCCNC(=N)N)C(=O)N[C@@H](Cc1c[nH]c2ccccc12)C(=O)NCC(=O)N[C@@H](CCCCN)C(N)=O [Ac--[Tyr^4 --D-Phe^7]--alpha-MSH4-11 --NH2] (Ac-YEH[dF]RWGK-NH2)
Relative Potency Frog (frog (Rana pipiens)): 0.01

CSCC[C@H](NC(C)=O)C(=O)N[C@@H](CCC(=O)O)C(=O)N[C@@H](Cc1c[nH]cn1)C(=O)N[C@H](C)C(=O)N[C@@H](CCCNC(=N)N)C(=O)N[C@@H](Cc1c[nH]c2ccccc12)C(=O)NCC(=O)N[C@@H](CCCCN)C(N)=O [Ac--[D-Ala^7]--alpha-MSH4-11 --NH2] (Ac-MEH[dA]RWGK-NH2)
Relative Potency Frog (frog (Rana pipiens)): 0.001

CCCC[C@H](NC(C)=O)C(=O)N[C@@H](CCC(=O)O)C(=O)N[C@@H](Cc1c[nH]cn1)C(=O)N[C@H](Cc1ccccc1)C(=O)N[C@@H](CCCNC(=N)N)C(=O)N[C@@H](Cc1c[nH]c2ccccc12)C(=O)NCC(=O)N[C@@H](CCCCN)C(N)=O [Ac--[Nle^4 --D-Phe^7]--alpha-MSH4-11 --NH2] (Ac-[Nle]EH[dF]RWGK-NH2)
Relative Potency Frog (frog (Rana pipiens)): 0.012
Relative Potency Lizard [1]: 8.0

CCCC[C@H](NC(C)=O)C(=O)N[C@@H](CCC(=O)O)C(=O)N[C@@H](Cc1c[nH]cn1)C(=O)N[C@@H](Cc1ccccc1)C(=O)N[C@@H](CCCNC(=N)N)C(=O)N[C@H](Cc1c[nH]c2ccccc12)C(=O)NCC(=O)N[C@@H](CCCCN)C(N)=O [Ac--[Nle^4 --D-Trp^9]--alpha-MSH4-11 --NH2] (Ac-[Nle]EHFR[dW]GK-NH2)
Relative Potency Frog (frog (Rana pipiens)): 0.61
Relative Potency Lizard [1]: 1.7

CC(=O)N[C@@H](CCC(=O)O)C(=O)N[C@@H](Cc1c[nH]cn1)C(=O)N[C@H](Cc1ccccc1)C(=O)N[C@@H](CCCNC(=N)N)C(=O)N[C@@H](Cc1c[nH]c2ccccc12)C(=O)NCC(=O)N[C@@H](CCCCN)C(N)=O [Ac--[D-Phe^7]--alpha-MSH5-11 --NH2] (Ac-EH[dF]RWGK-NH2)
Relative Potency Frog (frog (Rana pipiens)): 0.01

CCCC[C@H](NC(C)=O)C(=O)N[C@@H](CCC(=O)O)C(=O)N[C@@H](Cc1c[nH]cn1)C(=O)N[C@@H](Cc1ccccc1)C(=O)N[C@H](CCCNC(=N)N)C(=O)N[C@@H](Cc1c[nH]c2ccccc12)C(=O)NCC(=O)N[C@@H](CCCCN)C(N)=O [Ac--[Nle^4 --D-Arg^8]--alpha-MSH4-11 --NH2] (Ac-[Nle]EHF[dR]WGK-NH2)
Relative Potency Frog (frog (Rana pipiens)): 0.000016
Relative Potency Lizard [1]: 0.0022

CSCC[C@H](NC(C)=O)C(=O)N[C@@H](CCC(=O)O)C(=O)N[C@@H](Cc1c[nH]cn1)C(=O)N[C@@H](Cc1ccc([N+](=O)[O-])cc1)C(=O)N[C@@H](CCCNC(=N)N)C(=O)N[C@@H](Cc1c[nH]c2ccccc12)C(=O)NCC(=O)N[C@@H](CCCCN)C(N)=O [Ac--[Phe(pNO2)^7]--alpha-MSH4-11 --NH2] (Ac-MEH[Phe(4-NO2)]RWGK-NH2)
Relative Potency Frog (frog (Rana pipiens)): 0.0003

CCCC[C@H](NC(C)=O)C(=O)N[C@@H](CCC(=O)O)C(=O)N[C@@H](Cc1c[nH]cn1)C(=O)N[C@H](Cc1ccccc1)C(=O)N[C@@H](CCCNC(=N)N)C(=O)N[C@H](Cc1c[nH]c2ccccc12)C(N)=O [Ac--[Nle^4 --D-Phe^7 --D-Trp^9]--alpha-MSH4-9 --NH2] (Ac-[Nle]EH[dF]R[dW]-NH2)
Relative Potency Frog (frog (Rana pipiens)): 0.03
Relative Potency Lizard [1]: 3.8

CCCC[C@H](NC(C)=O)C(=O)N[C@@H](CCC(=O)O)C(=O)N[C@@H](Cc1c[nH]cn1)C(=O)N[C@@H](Cc1ccccc1)C(=O)N[C@@H](CCCNC(=N)N)C(=O)N[C@@H](Cc1c[nH]c2ccccc12)C(N)=O [Ac--[Nle^4 --alpha-MSH4-9 --NH2] (Ac-[Nle]EHFRW-NH2)
Relative Potency Frog (frog (Rana pipiens)): 0.0007
Relative Potency Lizard [1]: 0.18

CCCC[C@H](NC(C)=O)C(=O)N[C@@H](CCC(=O)O)C(=O)N[C@@H](Cc1c[nH]cn1)C(=O)N[C@@H](Cc1ccccc1)C(=O)N[C@@H](CCCNC(=N)N)C(=O)N[C@@H](Cc1c[nH]c2ccccc12)C(=O)NCC(=O)N[C@@H](CCCCN)C(N)=O [Ac--[Nle^4]-alpha-MSH4-11 --NH2] (Ac-[Nle]EHFRWGK-NH2)
Relative Potency Frog (frog (Rana pipiens)): 0.0019
Relative Potency Lizard [1]: 1.54

CCCC[C@H](NC(C)=O)C(=O)N[C@@H](CCC(=O)O)C(=O)N[C@@H](Cc1c[nH]cn1)C(=O)N[C@H](Cc1ccccc1)C(=O)N[C@@H](CCCNC(=N)N)C(=O)N[C@@H](Cc1cn(C=O)c2ccccc12)C(=O)NCC(=O)N[C@@H](CCCCN)C(N)=O [Ac--[Nle^4 --D-Phe^7 --TrpFor^9]--alpha-MSH4-11 --NH2] (Ac-[Nle]EH[dF]RW(For)GK-NH2)
Relative Potency Frog (frog (Rana pipiens)): 0.033

CCCC[C@H](NC(C)=O)C(=O)N[C@@H](CCC(=O)O)C(=O)N[C@@H](Cc1c[nH]cn1)C(=O)N[C@@H](Cc1ccc(O)cc1)C(=O)N[C@@H](CCCNC(=N)N)C(=O)N[C@@H](Cc1c[nH]c2ccccc12)C(=O)NCC(=O)N[C@@H](CCCCN)C(N)=O [Ac--[Nle^4 --Tyr^7]--alpha-MSH4-11 --NH2] (Ac-[Nle]EHYRWGK-NH2)
Relative Potency Lizard [1]: 0.0090

Ac--[Phe--Gly^7 ]--alpha-MSH4-11 --NH2
Relative Potency Frog (frog (Rana pipiens); in vitro skin bioassay, alpha-MSH = 1.0): 0.10

CCCC[C@H](NC(C)=O)C(=O)N[C@@H](CCC(=O)O)C(=O)N[C@@H](Cc1c[nH]cn1)C(=O)N[C@H](Cc1ccccc1)C(=O)N[C@@H](CCCNC(=N)N)C(=O)N[C@@H](Cc1ccccc1)C(=O)NCC(=O)N[C@@H](CCCCN)C(N)=O [Ac--[Nle^4 --D-Phe^7 --Phe^9]--alpha-MSH4-11 --NH2] (Ac-[Nle]EH[dF]RFGK-NH2)
Relative Potency Frog (frog (Rana pipiens)): 0.017
